Key:
Format in all cases: in vivo
[1] = test system: barnyardgrass (Echinochloa crus-galli); experiment: Test B pre-/postemergence plant response
Procedure, shortened: (§1)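 Steps: plant seeds in loam soil–sand mix; spray soil preemergence, and in parallel spray 2–10 cm one- to two-leaf plants postemergence; hold ~10 days in greenhouse; visually rate injury against untreated controls (0 = no effect, 100 = complete control).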

corn (Zea mays) [2] = experiment: Test B pre-/postemergence plant response
Procedure, shortened: as §1

[3] = test system: giant foxtail (Setaria faberii); experiment: Test B pre-/postemergence plant response
Procedure, shortened: as §1

[4] = test system: pigweed (Amaranthus retroflexus); experiment: Test B pre-/postemergence plant response
Procedure, shortened: as §1

[5] = test system: wheat (Triticum aestivum); experiment: Test B pre-/postemergence plant response
Procedure, shortened: as §1

[6] = test system: morningglory (Ipomoea coccinea); experiment: Test D pre-/postemergence plant response
Excerpt: (§2) Seeds of plant species selected from blackgrass (Alopecurus myosuroides), Italian ryegrass (Lolium multiflorum), winter wheat (Triticum aestivum), galium (catchweed bedstraw, Galium aparine), corn (Zea mays), large (Lg) crabgrass (Digitaria sanguinalis), giant foxtail (Setaria faberii), johnsongrass (Sorghum halepense), lambsquarters (Chenopodium album), morningglory (Ipomoea coccinea), yellow nutsedge (Cyperus esculentus), pigweed (Amaranthus retroflexus), ragweed (common ragweed, Ambrosia elatior), soybean (Glycine max), bamyardgrass (Echinochloa crus-galli), oilseed rape (Brassica napus), waterhemp (common waterhemp, Amaranthus rudis), and velvetleaf (Abutilon theophrasti) were planted into a blend of loam soil and sand and treated preemergence with test chemicals formulated in a non-phytotoxic solvent mixture which included a surfactant. At the same time, plants selected from these crop and weed species and also kochia (Kochia scoparia), wild oat (Avena fatua), and chickweed (common chickweed, Stellaria media) were planted in pots containing Redi-Earth® planting medium (Scotts Company, 14111 Scottslawn Road, Marysville, Ohio 43041) comprising spaghnum peat moss, vermiculite, wetting agent and starter nutrients and treated with postemergence applications of test chemicals formulated in the same manner. Plants ranged in height from 2 to 18 cm (1- to 4-leaf stage) for postemergence treatments. Treated plants and controls were maintained in a greenhouse for 13 to 15 days, after which time all species were compared to controls and visually evaluated. Plant response ratings, summarized in Table D, are based on a scale of 0 to 100 where 0 is no effect and 100 is complete control. A dash (-) response means no test result.

[7] = test system: winter wheat (Triticum aestivum); experiment: Test D pre-/postemergence plant response
Excerpt: as §2

soybean (Glycine max) = experiment: Test D pre-/postemergence plant response
Excerpt: as §2

[8] = test system: large (Lg) crabgrass (Digitaria sanguinalis); experiment: Test D pre-/postemergence plant response
Excerpt: as §2

[9] = test system: galium (catchweed bedstraw, Galium aparine); experiment: Test D pre-/postemergence plant response
Excerpt: as §2

[10] = test system: ragweed (common ragweed, Ambrosia elatior); experiment: Test D pre-/postemergence plant response
Excerpt: as §2

[11] = test system: lambsquarters (Chenopodium album); experiment: Test D pre-/postemergence plant response
Excerpt: as §2

corn (Zea mays) [12] = experiment: Test D pre-/postemergence plant response
Excerpt: as §2

[13] = test system: Italian ryegrass (Lolium multiflorum); experiment: Test D pre-/postemergence plant response
Excerpt: as §2

[14] = test system: waterhemp (common waterhemp, Amaranthus rudis); experiment: Test D pre-/postemergence plant response
Excerpt: as §2

[15] = test system: yellow nutsedge (Cyperus esculentus); experiment: Test D pre-/postemergence plant response; settings: Preemergence; for Plant response rating, Nutsedge, Yellow: scale 0 to 100 (0 no effect, 100 complete control)
Excerpt: as §2

[16] = 125 g ai/ha, postemergence, 0 to 100 scale, 0 no effect, 100 complete control
[17] = Postemergence, 500 g ai/ha, 0 to 100 scale (0 no effect, 100 complete control)
[18] = Preemergence, 125 g ai/ha, 0 to 100 scale where 0 is no effect and 100 is complete control
[19] = Preemergence, 500 g ai/ha, 0 to 100 scale where 0 is no effect and 100 is complete control
[20] = Postemergence, 16 g ai/ha, scale 0 to 100 (0 no effect, 100 complete control)
[21] = Postemergence, 31 g ai/ha, scale 0 to 100 (0 no effect, 100 complete control)
[22] = Postemergence, 62 g ai/ha, scale 0 to 100, 0 no effect, 100 complete control
[23] = Postemergence, 125 g ai/ha, scale 0 to 100, 0 no effect, 100 complete control
[24] = Preemergence, 16 g ai/ha, scale 0 to 100 (0 no effect, 100 complete control)
[25] = Preemergence, 31 g ai/ha, scale 0 to 100 (0 no effect, 100 complete control)
[26] = Preemergence, 62 g ai/ha, scale 0 to 100 (0 no effect, 100 complete control)

Structure (SMILES): FC(F)(F)c1cc(-c2ccccc2Oc2ncc(Cl)cn2)ncn1 [Compound 54]
- Plant response rating, Barnyardgrass [1, 16]: 20
- Plant response rating, Barnyardgrass [1, 17]: 100
- Plant response rating, Barnyardgrass [1, 18]: 60
- Plant response rating, Barnyardgrass [1, 19]: 100
- Plant response rating, Corn (corn (Zea mays) [2]; [16]): 0
- Plant response rating, Corn (corn (Zea mays) [2]; [17]): 0
- Plant response rating, Foxtail, Giant [3, 16]: 80
- Plant response rating, Foxtail, Giant [3, 17]: 100
- Plant response rating, Foxtail, Giant [3, 18]: 100
- Plant response rating, Foxtail, Giant [3, 19]: 100
- Plant response rating, Pigweed [4, 16]: 100
- Plant response rating, Pigweed [4, 17]: 100
- Plant response rating, Pigweed [4, 18]: 100
- Plant response rating, Pigweed [4, 19]: 100
- Plant response rating, Wheat [5, 16]: 0
- Plant response rating, Wheat [5, 17]: 0
- Morningglory plant response rating [6, 20]: 5
- Morningglory plant response rating [6, 21]: 75
- Plant response rating, Morningglory [6, 22]: 75
- Plant response rating, Morningglory [6, 23]: 85
- Plant response rating (scale 0 to 100), Morningglory ([6]; Preemergence, 125 g ai/ha): 15
- Plant response rating, Morningglory [6, 24]: 0
- Plant response rating, Morningglory [6, 25]: 0
- Plant response rating, Morningglory [6, 26]: 5
- Wheat plant response rating [7, 20]: 0
- Wheat plant response rating [7, 21]: 0
- Plant response rating, Wheat [7, 22]: 0
- Plant response rating, Wheat [7, 23]: 5
- Plant response rating (scale 0 to 100), Wheat ([7]; Preemergence, 125 g ai/ha): 0
- Plant response rating, Wheat [7, 24]: 0
- Plant response rating, Wheat [7, 25]: 0
- Plant response rating, Wheat [7, 26]: 0
- Soybean plant response rating (soybean (Glycine max); [20]): 15
- Soybean plant response rating (soybean (Glycine max); [21]): 10
- Plant response rating, Soybean (soybean (Glycine max); [22]): 50
- Plant response rating, Soybean (soybean (Glycine max); [23]): 80
- Plant response rating (scale 0 to 100), Soybean (soybean (Glycine max); Preemergence, 125 g ai/ha): 20
- Plant response rating, Soybean (soybean (Glycine max); [24]): 0
- Plant response rating, Soybean (soybean (Glycine max); [25]): 10
- Plant response rating, Soybean (soybean (Glycine max); [26]): 20
- Crabgrass, Large plant response rating [8, 20]: 5
- Crabgrass, Large plant response rating [8, 21]: 5
- Plant response rating, Crabgrass, Large [8, 22]: 5
- Plant response rating, Crabgrass, Large [8, 23]: 5
- Plant response rating (scale 0 to 100), Crabgrass, Large ([8]; Preemergence, 125 g ai/ha): 100
- Plant response rating, Crabgrass, Large [8, 24]: 10
- Plant response rating, Crabgrass, Large [8, 25]: 75
- Plant response rating, Crabgrass, Large [8, 26]: 90
- Galium plant response rating [9, 20]: 50
- Galium plant response rating [9, 21]: 55
- Plant response rating, Galium [9, 22]: 55
- Plant response rating, Galium [9, 23]: 75
- Plant response rating (scale 0 to 100), Galium ([9]; Preemergence, 125 g ai/ha): 85
- Plant response rating, Galium [9, 24]: 50
- Plant response rating, Galium [9, 25]: 85
- Plant response rating, Galium [9, 26]: 60
- Ragweed plant response rating [10, 20]: 0
- Ragweed plant response rating [10, 21]: 0
- Plant response rating, Ragweed [10, 22]: 5
- Plant response rating, Ragweed [10, 23]: 35
- Plant response rating (scale 0 to 100), Ragweed ([10]; Preemergence, 125 g ai/ha): 35
- Plant response rating, Ragweed [10, 24]: 10
- Plant response rating, Ragweed [10, 25]: 40
- Plant response rating, Ragweed [10, 26]: 10
- Lambsquarters plant response rating [11, 20]: 0
- Lambsquarters plant response rating [11, 21]: 5
- Plant response rating, Lambsquarters [11, 22]: 5
- Plant response rating, Lambsquarters [11, 23]: 70
- Plant response rating (scale 0 to 100), Lambsquarters ([11]; Preemergence, 125 g ai/ha): 85
- Plant response rating, Lambsquarters [11, 24]: 5
- Plant response rating, Lambsquarters [11, 25]: 60
- Plant response rating, Lambsquarters [11, 26]: 85
- Corn plant response rating (corn (Zea mays) [12]; [20]): 0
- Corn plant response rating (corn (Zea mays) [12]; [21]): 0
- Plant response rating, Corn (corn (Zea mays) [12]; [22]): 5
- Plant response rating, Corn (corn (Zea mays) [12]; [23]): 5
- Plant response rating (scale 0 to 100), Corn (corn (Zea mays) [12]; Preemergence, 125 g ai/ha): 0
- Plant response rating, Corn (corn (Zea mays) [12]; [24]): 0
- Plant response rating, Corn (corn (Zea mays) [12]; [25]): 0
- Plant response rating, Corn (corn (Zea mays) [12]; [26]): 0
- Ryegrass, Italian plant response rating [13, 20]: 0
- Ryegrass, Italian plant response rating [13, 21]: 0
- Plant response rating, Ryegrass, Italian [13, 22]: 0
- Plant response rating, Ryegrass, Italian [13, 23]: 0
- Plant response rating (scale 0 to 100), Ryegrass, Italian ([13]; Preemergence, 125 g ai/ha): 30
- Plant response rating, Ryegrass, Italian [13, 24]: 0
- Plant response rating, Ryegrass, Italian [13, 25]: 5
- Plant response rating, Ryegrass, Italian [13, 26]: 5
- Waterhemp plant response rating [14, 20]: 45
- Waterhemp plant response rating [14, 21]: 60
- Plant response rating, Waterhemp [14, 22]: 80
- Plant response rating, Waterhemp [14, 23]: 75
- Plant response rating (scale 0 to 100), Waterhemp ([14]; Preemergence, 125 g ai/ha): 100
- Plant response rating, Waterhemp [14, 24]: 25
- Plant response rating, Waterhemp [14, 25]: 85
- Plant response rating, Waterhemp [14, 26]: 100
- Plant response rating (scale 0 to 100), Nutsedge, Yellow ([15]; 125 g ai/ha): 15
- Plant response rating, Nutsedge, Yellow ([15]; 16 g ai/ha): 0
- Plant response rating, Nutsedge, Yellow ([15]; 31 g ai/ha): 0
- Plant response rating, Nutsedge, Yellow ([15]; 62 g ai/ha): 0

Source: patent US10131652B2, “Pyrimidinyloxy benzene derivatives as herbicides” (E. I. DU PONT DE NEMOURS AND COMPANY, priority 2014, dated 2018)
